The values below are quoted from earlier work in US9895393B2, “Topical formulations for increasing the dermal concentration of hyaluronic acid” (SHAMROC, INC., priority 2012, dated 2018).

Molecules are shown by their SMILES. Peptide text beside a SMILES is read from it. * marks the point of attachment. Palmitoyl = CCCCCCCCCCCCCCCC(=O)*

The test system of one data set is skin. Particulars: Studies have shown.

In the case of `CCCCCCCCCCCCCCCC(=O)N[C@@H](CCCCN)C(=O)N[C@H](C(=O)N[C@@H](CCCCN)C(=O)O)C(C)C.O=C(O)C(F)(F)F.O=C(O)C(F)(F)F` [palmitoyl-lysyl-valyl-lysine bistrifluoroacetate] (Palmitoyl-Lys-Val-Lys-OH), in the data set on human fibroblasts, the collagen synthesis entry is “stimulates collagen synthesis”.
Turning to `CCCCCCCCC(CCCCCC)C(=O)OC[C@H](OC(=O)C(CCCCCC)CCCCCCCC)[C@H]1OC(=O)C(OC(=O)C(CCCCCC)CCCCCCCC)=C1OC(=O)C(CCCCCC)CCCCCCCC` (stereo partly shown) [tetrahexyldecyl ascorbate], in the data set with skin, the collagen production entry is on record as “stimulate collagen production” and the “melanogenesis (the production of pigment)” value was “inhibiting melanogenesis”. For the same compound, in the data set with lipid peroxidation, the anti-oxidant activity result was “inhibiting lipid peroxidation”.
